These results are taken from patent US12383512B2, “Cannabidiol-type cannabinoid compound” (Jazz Pharmaceuticals Research UK LImited, priority 2019, dated 2025).

Assay [1] deals with seizure threshold current for tonic hind limb extensor convulsions in mice. In words: Maximal electroshock seizure threshold (MEST) test in the mouse. Particulars: MEST test, 2.5 mg/kg i.p., pre-treatment time 30 min. On the procedure:
The efficacy of 6-OH CBD was tested in a mouse model of generalised seizure, the maximal electroshock seizure threshold (MEST) test.
In the MEST test the ability of a drug to alter the seizure threshold current required to induce hind limb tonic extensor convulsions is measured according to an “up and down” method of shock titration (Kimball et al., 1957). An increase in seizure threshold is indicative of anti-convulsant effect.
The ability of a test compound to alter the stimulus intensity, expressed as current (mA), required to induce the presence of tonic hind limb extensor convulsions, is assessed in the MEST.
Naïve mice were acclimatised to the procedure room in their home cages for up to 7 days, with food and water available ad libitum.
All animals were weighed at the beginning of the study and randomly assigned to treatment groups based on a mean distribution of body weight across groups.
The first animal within a treatment group was given a shock at the expected or estimated CC50 current. For subsequent animals, the current was lowered or raised depending on the convulsions outcome from the preceding animal.
Data generated from each treatment group were used to calculate the CC50±SEM values for the treatment group.
Vehicle: (5% ethanol, 5% solutol, 90% Saline) was prepared as follows: 2 mL of ethanol, 2 mL of solutol were warmed to 60° C., in 36 mL of saline (1:1:18).
The test compound, alpha 6-OH CBD was prepared according to the method described in Example 1. 6-OH CBD was administered at 3, 10 and 30 mg/kg (i.p.) in a 1:1:18 ethanol:solutol:0.9% saline formulation.
6-OH CBD effects were also calculated as percentage change in CC50 from the vehicle control group.
Significant difference between drug-treated animals and controls were assessed according to Litchfield and Wilcoxon (1949).

Assay [2] concerns tonic hind limb extensor seizure following corneally delivered electroshock in mice. In words: Supramaximal electroshock seizure (MES) test in the mouse. The assay is classed as in vivo. Particulars: 250 mg/kg i.p., pre-treatment time 30 min. As for the experimental part: The MES test is a very stringent model in which mice receive a predetermined high-level electrical stimulus of sufficient intensity to reliably produce tonic hindlimb extensor seizures in 100% of control animals. As such the MES test is a rigorous evaluation of anticonvulsant activity (Swinyard, 1985).
Animals were dosed i.p. according to treatment group. […]
In addition, a dose of 100 mg/kg CBD was given at 10 ml/kg i.p. at 120 minutes pre-treatment time to assess the effect of the drug over a longer time course.
The positive control valproate was used at 250 mg/kg (10 ml/kg i.p. 30 min pre-treatment time).
Induction of seizure is measured as an all-or-nothing effect scored as either present (+) or absent (0) for each animal.
Data was collected by an observer unaware of the treatment for each animal and was expressed as the number of +'s or 0's for each treatment group.
The percentage inhibition of relevant vehicle treated group (the protection relative to vehicle treated controls) was then generated.
Significant differences between individual treatment groups and vehicle-treated groups were assessed using 2-tailed Fisher's Exact Probability test (p<0.05 considered significant).

On to `CN1C(=O)CN=C(c2ccccc2)c2cc(Cl)ccc21` [Diazepam, diazepam, reference compound], for which the “% change from vehicle (CC50)” value in assay [1] was determined as 103%.
On to `CCCC(CCC)C(=O)O` [Valproate, valproate, reference compound], for which the “% change from vehicle” value in assay [2] turned out to be 100%.
